Test results taken from US9133204B2, “5-membered heterocyclic amides and related compounds” (H. Lundbeck A/S, priority 2007, dated 2015).

biological target: T1, P2X7 receptor (Homo sapiens, UniProt Q99572); experiment: High throughput P2X7 calcium mobilization assay (Example 4A); type: cell-based; conditions: SH-SY5Y cells; 50% decrease in fluorescence response of cells exposed to 80 μM BzATP; Table I
T1 construct: host or cells: SH-SY5Y
T1 sequence (Q99572 1-595): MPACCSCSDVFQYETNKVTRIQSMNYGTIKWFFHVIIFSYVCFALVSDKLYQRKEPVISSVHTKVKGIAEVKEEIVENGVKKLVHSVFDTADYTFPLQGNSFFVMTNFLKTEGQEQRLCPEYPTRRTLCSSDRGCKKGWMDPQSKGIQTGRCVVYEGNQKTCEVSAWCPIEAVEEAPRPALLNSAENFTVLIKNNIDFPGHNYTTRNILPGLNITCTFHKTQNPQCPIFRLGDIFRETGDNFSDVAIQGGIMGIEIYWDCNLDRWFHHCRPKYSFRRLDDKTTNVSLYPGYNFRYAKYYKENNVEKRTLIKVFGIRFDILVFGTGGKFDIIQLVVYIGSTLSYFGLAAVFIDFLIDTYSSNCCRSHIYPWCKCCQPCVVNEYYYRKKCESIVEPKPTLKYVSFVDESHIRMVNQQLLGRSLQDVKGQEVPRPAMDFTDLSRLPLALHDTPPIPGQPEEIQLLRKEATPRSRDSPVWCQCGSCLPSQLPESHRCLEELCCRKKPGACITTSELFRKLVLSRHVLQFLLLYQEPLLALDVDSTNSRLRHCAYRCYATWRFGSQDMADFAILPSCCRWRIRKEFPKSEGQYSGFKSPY
In short: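 SH-SY5Y cells loaded with 2.3 μM Fluo-4 AM for 1 h at 37 °C, then preincubated 1 h at room temperature with test compound (final 1–2500 nM) in low-sodium sucrose buffer, pH 7.4. Antagonism measured against 80 μM BzATP (about EC50) as peak FLIPR calcium fluorescence over 2 min, corrected by no-agonist background.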

| IC50 | Compound |
| --- | --- |
| ≤ 2000 nM | C=Cc1nc(-n2cc(C(=O)NCC34CC5CC(CC(C5)C3)C4)c(C)n2)ncc1C [Compound 103, N-(adamantan-1-ylmethyl)-3-methyl-1-(5-methyl-4-vinylpyrimidin-2-yl)-1H-pyrazole-4-carboxamide] |
| ≤ 2000 nM | Cc1cnc(-n2cc(C(=O)NCC34CC5CC(CC(C5)C3)C4)c(C)n2)nc1C(=O)N1CCCC1 [Compound 104, N-(adamantan-1 ylmethyl)-3-methyl-1-[5-methyl-4-(pyrrolidin-1-ylcarbonyl)pyrimidin-2-yl]-1H-pyrazole-4-carboxamide] |
| ≤ 2000 nM | Cc1cnc(-n2cc(C(=O)NCC34CC5CC(CC(C5)C3)C4)c(C)n2)nc1C(=O)N1CCC[C@@H](N)C1 [Compound 105, N-(adamantan-1-ylmethyl)-1-(4-{[(3R)-3-aminopiperidin-1-yl]carbonyl}-5-methylpyrimidin-2-yl)-3-methyl-1H-pyrazole-4-carboxamide] |
| ≤ 2000 nM | CCc1nc(-n2cc(C(=O)NCC34CC5CC(CC(C5)C3)C4)c(C)n2)ncc1C [Compound 106, N-(adamantan-1-ylmethyl)-1-(4-ethyl-5-methylpyrimidin-2-yl)-3-methyl-1H-pyrazole-4-carboxamide] |
| ≤ 2000 nM | CCNC(=O)c1nc(-n2cc(C(=O)NCC34CC5CC(CC(C5)C3)C4)c(C)n2)ncc1C [Compound 107, 2-{4-[(adamantan-1-ylmethyl)carbamoyl]-3-methyl-1H-pyrazol-1-yl]-N-ethyl-5-methylpyrimidine-4-carboxamide] |
| ≤ 2000 nM | CCCNC(=O)c1nc(-n2cc(C(=O)NCC34CC5CC(CC(C5)C3)C4)c(C)n2)ncc1C [Compound 108, 2-{4-[(adamantan-1-ylmethyl)carbamoyl]-3-methyl-1H-pyrazol-1-yl}-5-methyl-N-propylpyrimidine-4-carboxamide] |
| ≤ 2000 nM | Cc1cnc(-n2cc(C(=O)NCC(CC(C)C)c3ccc(Cl)cc3)c(C)n2)nc1N (stereo not shown) [Compound 109, 1-(4-amino-5-methylpyrimidin-2-yl)-N-[2-(4-chlorophenyl)-4-methylpentyl]-3-methyl-1H-pyrazole-4-carboxamide] |
| ≤ 2000 nM | Cc1nn(-c2ncc(F)c(N)n2)cc1C(=O)NCC12CC3CC(CC(C3)C1)C2 [Compound 110, N-(adamantan-1-ylmethyl)-1-(4-amino-5-fluoropyrimidin-2-yl)-3-methyl-1H-pyrazole-4-carboxamide] |
| ≤ 2000 nM | Cc1nn(-c2nccc(C(F)(F)F)n2)cc1C(=O)NCC12CC3CC(CC(C3)C1)C2 [Compound 111, N-(adamantan-1-ylmethyl)-3-methyl-1-[4-(trifluoromethyl)pyrimidin-2-yl]-1H-pyrazole-4-carboxamide] |
| ≤ 2000 nM | Cc1nn(-c2ncc(F)cn2)cc1C(=O)NCC12CC3CC(CC(C3)C1)C2 [Compound 112, N-(adamantan-1-ylmethyl)-1-(5-fluoropyrimidin-2-yl)-3-methyl-1H-pyrazole-4-carboxamide] |
| ≤ 2000 nM | Cc1nn(-c2ncc(F)c(N)n2)cc1C(=O)NCC(CC(C)C)c1ccc(Cl)cc1 (stereo not shown) [Compound 113, 1-(4-amino-5-fluoropyrimidin-2-yl)-N-[2-(4-chlorophenyl)-4-methylpentyl]-3-methyl-1H-pyrazole-4-carboxamide] |
| ≤ 2000 nM | Cc1nn(-c2ncc(F)cn2)cc1C(=O)NCC(CC(C)C)c1ccc(Cl)cc1 (stereo not shown) [Compound 114, N-[2-(4-chlorophenyl)-4-methylpentyl]-1-(5-fluoropyrimidin-2-yl)-3-methyl-1H-pyrazole-4-carboxamide] |
| ≤ 2000 nM | Cc1cnc(-n2cc(C(=O)NCC(CC(C)C)c3ccc(C(F)(F)F)cc3)c(C)n2)nc1N (stereo not shown) [Compound 115, 1-(4-amino-5-methylpyrimidin-2-yl)-3-methyl-N-{4-methyl-2-[4-(trifluoromethyl)phenyl]pentyl}-1H-pyrazole-4-carboxamide] |
| ≤ 2000 nM | Cc1nn(-c2ncc(F)c(N)n2)cc1C(=O)NCC(CC(C)C)c1ccc(C(F)(F)F)cc1 (stereo not shown) [Compound 116, 1-(4-amino-5-fluoropyrimidin-2-yl)-3-methyl-N-{4-methyl-2-[4-(trifluoromethyl)phenyl]pentyl}-1H-pyrazole-4-carboxamide] |
| ≤ 2000 nM | Cc1nn(-c2ncc(F)cn2)cc1C(=O)NCC(CC(C)C)c1ccc(C(F)(F)F)cc1 (stereo not shown) [Compound 117, 1-(5-fluoropyrimidin-2-yl)-3-methyl-N-{4-methyl-2-[4-(trifluoromethyl)phenyl]pentyl}-1H-pyrazole-4-carboxamide] |
| ≤ 2000 nM | O=C(NCC12CC3CC(CC(C3)C1)C2)c1cn(-c2ncc(F)cn2)nc1C(F)(F)F [Compound 118, N-(adamantan-1-ylmethyl)-1-(5-fluoropyrimidin-2-yl)-3-(trifluoromethyl)-1H-pyrazole-4-carboxamide] |
| ≤ 2000 nM | Cc1cnc(-n2cc(C(=O)NCC34CC5CC(CC(C5)C3)C4)c(C)n2)nc1-c1ccncc1 [Compound 119, N-(adamantan-1-ylmethyl)-3-methyl-1-(5-methyl-4-pyridin-4-ylpyrimidin-2-yl)-1H-pyrazole-4-carboxamide] |
| ≤ 2000 nM | Cc1cnc(-n2cc(C(=O)NCC34CC5CC(CC(C5)C3)C4)c(C)n2)nc1-c1cncnc1 [Compound 120, N-(adamantan-1-ylmethyl)-3-methyl-1-(5-methyl-4,5′ bipyrimidin-2-yl)-1H-pyrazole-4-carboxamide] |
| ≤ 2000 nM | Cc1cnc(-n2cc(C(=O)NCC34CC5CC(CC(C5)C3)C4)c(C)n2)nc1-c1ccccn1 [Compound 121, N-(adamantan-1-ylmethyl)-3-methyl-1-(5-methyl-4-pyridin-2-ylpyrimidin-2-yl)-1H-pyrazole-4-carboxamide] |
| ≤ 2000 nM | Cc1cnc(-n2cc(C(=O)NCC34CC5CC(CC(C5)C3)C4)c(C)n2)nc1-c1ncccn1 [Compound 122, N-(adamantan-1-ylmethyl)-3-methyl-1-(5′-methyl-2,4′-bipyrimidin-2′-yl)-1H-pyrazole-4-carboxamide] |
| ≤ 2000 nM | Cc1cnc(-n2cc(C(=O)NCC34CC5CC(CC(C5)C3)C4)c(C(F)(F)F)n2)nc1N [Compound 123, N-(adamantan-1-ylmethyl)-1-(4-amino-5-methylpyrimidin-2-yl)-3-(trifluoromethyl)-1H-pyrazole-4-carboxamide] |
| ≤ 2000 nM | Cc1ccc(-n2cc(C(=O)NCC34CC5CC(CC(C5)C3)C4)c(C(F)(F)F)n2)nc1 [Compound 124, N-(adamantan-1-ylmethyl)-1-(5-methylpyridin-2-yl)-3-(trifluoromethyl)-1H-pyrazole-4-carboxamide] |
| ≤ 2000 nM | Cc1nn(-c2ncc(Br)cn2)cc1C(=O)NCC12CC3CC(CC(C3)C1)C2 [Compound 125, N-(adamantan-1-ylmethyl)-1-(5-bromopyrimidin-2-yl)-3-methyl-1H-pyrazole-4-carboxamide] |
| ≤ 2000 nM | CC(C)c1nn(-c2ncc(F)c(N)n2)cc1C(=O)NCC12CC3CC(CC(C3)C1)C2 [Compound 126, N-(adamantan-1-ylmethyl)-1-(4-amino-5-fluoropyrimidin-2-yl)-3-isopropyl-1H-pyrazole-4-carboxamide] |
| ≤ 2000 nM | CC(C)c1nn(-c2ncc(F)cn2)cc1C(=O)NCC12CC3CC(CC(C3)C1)C2 [Compound 127, N-(adamantan-1-ylmethyl)-1-(5-fluoropyrimidin-2-yl)-3-isopropyl-1H-pyrazole-4-carboxamide] |
